Assays:
BAZ2A bromodomain [1] = biological target: T1, BAZ2A bromodomain (Homo sapiens, UniProt Q9UIF9); test: AlphaScreen binding competition, BAZ2A bromodomain; settings: for % residual binding BAZ2A (100 μM): compound at 100 μM
T1 construct: BAZ2A and BAZ2B bromodomains were produced; made in house
T1 sequence (Q9UIF9 1793-1897 limits assumed): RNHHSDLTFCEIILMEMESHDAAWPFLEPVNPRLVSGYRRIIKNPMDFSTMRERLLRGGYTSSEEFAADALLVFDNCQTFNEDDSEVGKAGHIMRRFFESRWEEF
Source text: (§1) BAZ2A and BAZ2B bromodomains were produced and their activity evaluated by AlphaScreen as previously reported (Dalle Vedove et al., [2018]; Spiliotopoulos et al., [2017]). BAZ2A bromodomain was crystallized as detailed in an earlier work (Spiliotopoulos et al., [2017]). Diffraction data were collected at the Elettra Synchrotron Light Source (Trieste, Italy), XRD1 and XRD2 beamlines, and the European Synchrotron Radiation Facility (ESRF, Grenoble, France), ID30A‐1/MASSIF‐1 beamline. Data were processed and structures were solved as described elsewhere (Dalle Vedove et al., [2018]). Chemical synthesis of compounds UP39 and UZH23 has already been reported (Unzue et al., [2016]; Zhu et al., [2018]). A detailed description of cell culture methods and ITC protocol is provided in the Supporting Information.
(§2) Figure S3. AlphaScreen competition binding assay for compounds UP39 and UZH23. The specific binding to the acetylated peptide relative to the control DMSO (y-axis) is plotted against the corresponding compound concentration in µM in log10 scale (x-axis).
(§3) (1 picture or pasted object on this page, not shown here)

BRPF3 = biological target: BRPF3; parameters: method as in Humphreys et al., [2017]; settings: lower potency than on PCAF/GCN5; ref Humphreys et al., [2017]; read-out: potency on BRPF3 bromodomain; cited from earlier work
BRPF1 = biological target: BRPF1; parameters: method as in Humphreys et al., [2017]; settings: lower potency than on PCAF/GCN5; ref Humphreys et al., [2017]; read-out: potency on BRPF1 bromodomain; cited from earlier work
BAZ2A bromodomain [2] = biological target: T1, BAZ2A bromodomain; test: Isothermal titration calorimetry (ITC) on BAZ2A; format: binding
Source text: It is worth noticing however that these values may be slightly overestimated. The presence of 0.25% DMSO in the ITC experiments leads to less favorable K D values as DMSO competes for binding to the conserved Asn (Lolli & Battistutta, [2013]; Navratilova et al., [2016]). […] Indeed, the change in sign of the entropic term observed for TP‐238 binding to BAZ2A (compared to BPTF and CECR2) closely resembles the effect reported for crotonyllysine binding to the TAF1 bromodomain (compared to Kac), also displacing an additional water molecule from the binding pocket (Flynn et al., [2015]). […]
Isothermal Titration Calorimetry
ITC experiments were performed using an MicroCal PEAQ-IT C microcalorimeter (Malvern Panalytical, UK) at 25°C with a stirring speed of 750 rpm in 20mM Tris pH 7. 8, 0. 2 M NaCl, 0. 2 mM TCEP and 0. 25% DMSO. For each experiment, one 0. 4 µl injection followed by eighteen 2 µl injections have been performed, with 150 seconds separating each injectio n. The inhibitors were tested at 70 µM in the cell with His -Baz2A in the syringe at 1 mM. A blank run with only the buffer was carried out (Suppl. Fig. S6). Data analysis was done with PE A Q-ITC Analysis software , fitting the curve with the ‘one site’ model.

PCAF = biological target: PCAF; parameters: method as in Humphreys et al., [2017]; settings: ref Humphreys et al., [2017]; read-out: K D PCAF bromodomain; cited from earlier work
BAZ2B bromodomain = biological target: T2, BAZ2B bromodomain (Homo sapiens, UniProt Q9UIF8); test: AlphaScreen binding competition, BAZ2B bromodomain; settings: for % residual binding BAZ2B (100 μM): compound at 100 μM
T2 construct: BAZ2A and BAZ2B bromodomains were produced; made in house
T2 sequence (Q9UIF8 2060-2164 limits assumed): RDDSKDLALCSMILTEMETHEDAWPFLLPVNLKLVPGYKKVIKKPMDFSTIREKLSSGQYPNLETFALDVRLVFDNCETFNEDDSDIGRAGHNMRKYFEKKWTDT
Source text: as §1, §2, §3

BRD1 = biological target: BRD1; parameters: method as in Humphreys et al., [2017]; settings: lower potency than on PCAF/GCN5; ref Humphreys et al., [2017]; read-out: potency on BRD1 bromodomain; cited from earlier work
BAZ2A bromodomain [3] = biological target: T1, BAZ2A bromodomain; test: Screening by co‐crystallization with BAZ2A bromodomain; format: binding
Source text: as §1

GCN5 = biological target: GCN5; parameters: method as in Humphreys et al., [2017]; settings: ref Humphreys et al., [2017]; read-out: K D GCN5 bromodomain; cited from earlier work
TAF1 = test system: TAF1; parameters: method as in Bamborough et al., [2016]; settings: relative to ATAD2; ref Bamborough et al., [2016]; cited from earlier work
ATAD2 bromodomains = test system: ATAD2 bromodomains; parameters: method as in Bamborough et al., [2016]; settings: ref Bamborough et al., [2016]; cited from earlier work
TAF1L = settings: relative to ATAD2; ref Bamborough et al., [2016]; cited from earlier work
CBP bromodomain = settings: ref Zhu et al., [2018]; read-out: K D CBP bromodomain; cited from earlier work

Compound	% residual binding BAZ2A (100 μM) (BAZ2A bromodomain [1])	Kd (BRPF3)	Kd (BRPF1)	Kd (BAZ2A bromodomain [2]; 25°C, 0.25% DMSO, read-out: K D BAZ2A)	TΔS (BAZ2A bromodomain [2]; BAZ2A)	ΔG (BAZ2A bromodomain [2]; BAZ2A)	ΔH (BAZ2A bromodomain [2]; BAZ2A)	N (sites) (BAZ2A bromodomain [2]; BAZ2A, one site model)	Kd (PCAF)	% residual binding BAZ2B (100 μM) (BAZ2B bromodomain)	Kd (BRD1)	located in BAZ2A Kac pocket by co‐crystallization (BAZ2A bromodomain [3])	Kd (GCN5)	affinity for TAF1 bromodomain (TAF1)	binding to ATAD2 bromodomains (ATAD2 bromodomains)	affinity for TAF1L bromodomain (TAF1L)	IC50 (BAZ2A bromodomain [1]; AlphaScreen)	Kd (CBP bromodomain)	IC50 (BAZ2B bromodomain; AlphaScreen)
CN1C[C@H](Nc2cnn(C)c(=O)c2Br)C[C@H](c2ccccc2)C1 [GSK4027]	77 ± 5%	100 to 150 nM	100 to 150 nM	165000 ± 8000 nM	-5.8 kcal/mol	-5.2 kcal/mol	-11.0 ± 0.3 kcal/mol	1 sites	1.4 nM	70 ± 3%	100 to 150 nM	located in the BAZ2A Kac pocket	1.4 nM						
CO[C@H]1CNC[C@@H](OCC2CCC(F)(F)CC2)[C@@H]1Nc1ncc(-c2cncc(C)c2)c2cc(C)c(=O)[nH]c12 [GSK8814]	88 ± 3%									86 ± 2%		inability to act as BAZ2A inhibitors		lower affinity	potent nanomolar binder	lower affinity			
CCOc1ccc(C(C)=O)cc1NC(=O)c1ccc(OCCN2CCNCC2)c(C(=O)OC)c1 [UP39]	36 ± 5%									42 ± 6%		located in the BAZ2A Kac pocket					61000 ± 4000 nM	1400 nM	73000 ± 5000 nM
